Format in all cases: cell-based
Assay [1] has as its target TRPML1 (Homo sapiens, UniProt Q9GZU1). Nature of the assay: Fluorescent TRPML1 assay (Fluo4-AM calcium fluorescence in doxycycline-induced HEK-293 Trex cells). The essentials: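 HEK-293 Trex cells stably expressing surface-directed mutant human TRPML1, induced with 0.5 µg/mL doxycycline overnight, were loaded with 1 µM Fluo4-AM and added to compound (6 nM–20 µM final, half-log steps, triplicate) in Ringer's with 10 mM calcium. Fluorescence ex 480/em 540; EC50 by non-linear regression versus plate controls.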

Assay [2] has as its target T1, TRPML2 (Homo sapiens, UniProt Q8IZK6).
T1 construct: expressed in transfected cells
T1 sequence (Q8IZK6 1-566): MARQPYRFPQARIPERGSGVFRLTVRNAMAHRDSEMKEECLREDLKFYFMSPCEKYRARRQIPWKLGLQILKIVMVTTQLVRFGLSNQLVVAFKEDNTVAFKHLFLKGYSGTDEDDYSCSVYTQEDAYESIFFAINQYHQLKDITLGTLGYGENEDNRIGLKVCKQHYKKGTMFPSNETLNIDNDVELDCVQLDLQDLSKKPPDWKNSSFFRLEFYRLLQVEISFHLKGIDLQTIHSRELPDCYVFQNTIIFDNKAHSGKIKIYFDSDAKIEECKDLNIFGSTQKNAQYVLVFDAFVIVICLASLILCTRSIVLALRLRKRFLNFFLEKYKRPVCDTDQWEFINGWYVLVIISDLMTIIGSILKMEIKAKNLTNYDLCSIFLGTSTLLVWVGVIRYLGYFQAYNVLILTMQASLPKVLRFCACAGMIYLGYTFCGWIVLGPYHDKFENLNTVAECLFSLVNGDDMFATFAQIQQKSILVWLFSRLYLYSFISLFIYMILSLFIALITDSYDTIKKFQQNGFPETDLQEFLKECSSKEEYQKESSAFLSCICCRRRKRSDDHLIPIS
Description: Fluorescent TRPML2 assay (performed as for TRPML1, substituting the TRPML2 subtype). The method, then:
HEK-293 Trex cells were stably transfected with a construct consisting of the human coding sequence for TRPML1 cloned into the […] plasmid pCDNA5 T/O. Mutations were introduced into the TRPML1 sequence to facilitate expression on the cell surface (Silvia Vergarajauregui, Rosa Puertollano, Traffic. 2006 March; 7(3): 337-353). Briefly, the cells are cultured in 150 mm round tissue culture dishes containing 20 mL of media. The day before the assay the cells are rinsed with DPBS-Ca—Mg and then treated briefly with Trypsin-EDTA. The Trypsin-EDTA is diluted with growth media, and cells are counted. 38×10^6 cells are re-plated into 150 mm round tissue culture dishes in media containing 0.5 ug/mL doxycycline to induce expression of hTRPML1.
The day of the experiment cells are lifted from the plates as above and collected by centrifugation. The cells are then suspended in dye loading buffer consisting of Ringer's solution supplemented with 0.1% Pluronic Acid and 1 micromolar Fluo4-AM dye. Cells are loaded for ˜60 minutes in the dark with occasional mixing. The cells are collected by centrifugation, the loading media aspirated, and the cells resuspended in 25 mL Ringer's solution and incubated ˜60 minutes in the dark. The cells are again collected by centrifugation, rinsed in Ringer's Solution and resuspended to […] in modified Ringer's solution containing 10 mM calcium.
Compounds are dissolved to a concentration of 10 millimolar with DMSO. Compound plates are created by dispensing compounds into 384 well black wall clear bottom plates (Greiner 781091). Positive and negative controls are included on each plate. Typically, different amounts of each compound are tested ranging from 100 nanoMoles (20 micromolar final concentration) decreasing in half-log steps to 31 picoMoles (6 nanomolar final concentration). Each concentration is typically tested in triplicate.
50 microliters of dye-loaded cells are dispensed into each well of the compound assay plate created above. The fluorescence in each well is then determined with an excitation wavelength of 480 nm and an emission wavelength of 540 nm using either a Molecular Devices SpectraMax multimode plate reader or a Hamamatsu FDSS/uCell plate imager.
The resulting fluorescence for each well is exported as an ascii file and loaded into our LIMS for analysis. The percent activity of each compound at each concentration is determined by comparison to the positive and negative control wells included in each plate.
TRPML2 and TRPML3 Assays Assays for TRPML2 and TRPML3 were performed as above for TRPML1, by substituting the appropriate TRPML2 or TRPML3 subtype for the TRPML1.
EC50 values were calculated using a non-linear regression of Prism. In the table, “A” indicates an EC50 of less than 100 nM, “B” indicates an EC50 range from 100 nM to 500 nM; “C” indicates an EC50 range from 500 nM to 2 μM; and “D” indicates an EC50 greater than 2 μM.

Assay [3] has as its target T2, TRPML3 (Homo sapiens, UniProt Q8TDD5).
T2 construct: expressed in transfected cells
T2 sequence (Q8TDD5 1-553): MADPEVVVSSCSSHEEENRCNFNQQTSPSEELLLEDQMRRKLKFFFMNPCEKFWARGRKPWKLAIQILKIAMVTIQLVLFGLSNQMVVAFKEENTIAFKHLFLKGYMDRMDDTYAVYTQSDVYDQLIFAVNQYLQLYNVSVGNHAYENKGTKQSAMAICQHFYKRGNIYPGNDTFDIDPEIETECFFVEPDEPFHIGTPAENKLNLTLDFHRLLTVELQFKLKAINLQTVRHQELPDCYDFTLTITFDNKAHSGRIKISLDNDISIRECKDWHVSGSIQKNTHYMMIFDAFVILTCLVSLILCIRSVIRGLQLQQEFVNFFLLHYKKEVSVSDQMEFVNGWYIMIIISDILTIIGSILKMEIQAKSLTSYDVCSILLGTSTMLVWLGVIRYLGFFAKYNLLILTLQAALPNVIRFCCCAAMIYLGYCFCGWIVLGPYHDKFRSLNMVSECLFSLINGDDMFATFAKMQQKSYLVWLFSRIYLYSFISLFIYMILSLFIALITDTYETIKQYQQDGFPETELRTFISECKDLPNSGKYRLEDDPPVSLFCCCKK
Description: Fluorescent TRPML3 assay (performed as for TRPML1, substituting the TRPML3 subtype). The essentials: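 Calcium-influx readout: Fluo4 fluorescence at 480/540 nm, normalised to positive and negative controls per plate, EC50 fitted by non-linear regression. Cells were HEK-293 Trex stable lines, channel expression induced overnight with 0.5 ug/mL doxycycline; tested at 20 micromolar down to 6 nanomolar final, half-log steps, triplicate.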

These results are taken from patent publication US20250136606A1, “MODULATORS OF TRPML, THEIR COMPOSITIONS AND METHODS OF USE” (Caraway Therapeutics, Inc., priority 2021, published 2025).

Read-outs that look alike come from different tables or passages of the source. Where only a bound is given, the exact number is not on record here.

TRPML1, sequence (Q9GZU1 whole entry L15A/L16A/L577A/L578A, form open): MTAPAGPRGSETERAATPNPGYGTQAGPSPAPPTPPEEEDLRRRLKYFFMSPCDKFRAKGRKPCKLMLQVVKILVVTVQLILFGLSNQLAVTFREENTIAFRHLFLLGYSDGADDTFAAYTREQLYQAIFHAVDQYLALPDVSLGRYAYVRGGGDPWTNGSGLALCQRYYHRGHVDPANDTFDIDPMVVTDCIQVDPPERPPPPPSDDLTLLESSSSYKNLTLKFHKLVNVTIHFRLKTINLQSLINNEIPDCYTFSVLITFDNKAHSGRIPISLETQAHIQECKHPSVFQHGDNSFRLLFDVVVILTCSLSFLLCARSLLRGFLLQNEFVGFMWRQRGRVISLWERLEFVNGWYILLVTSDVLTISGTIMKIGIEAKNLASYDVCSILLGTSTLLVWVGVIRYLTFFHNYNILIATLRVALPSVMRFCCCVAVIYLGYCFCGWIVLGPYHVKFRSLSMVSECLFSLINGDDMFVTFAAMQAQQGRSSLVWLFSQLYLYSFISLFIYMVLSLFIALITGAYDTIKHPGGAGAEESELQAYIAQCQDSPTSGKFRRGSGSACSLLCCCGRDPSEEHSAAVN

The term EC50 denotes the concentration needed to bring the measured effect to its halfway point. As to `CCOC(=O)N1C[C@H](C)N(c2ncnc3c2c(-c2ccccc2F)cn3-c2cncc(OC)c2)C[C@H]1C` [Compound 138, ethyl (2R,5S)-4-(5-(2-fluorophenyl)-7-(5-methoxypyridin-3-yl)-7H-pyrrolo[2,3-d]pyrimidin-4-yl)-2,5-dimethylpiperazine-1-carboxylate], the concentration for a half-maximal effect (EC50) in assay [1] (fluorescent calcium assay), in assay [2] (fluorescent calcium assay) and in assay [3] (fluorescent calcium assay) was 500 to 2000 nM in each case.
As for `CC(C)(C)OC(=O)N1CCN(c2ncnc3c2c(C2CC2)cn3-c2cc(F)c(F)c(F)c2)CC1` [Compound 234, tert-butyl 4-(5-cyclopropyl-7-(3,4,5-trifluorophenyl)-7H-pyrrolo[2,3-d]pyrimidin-4-yl)piperazine-1-carboxylate], the results for the EC50 in assay [1] (fluorescent calcium assay), in assay [2] (fluorescent calcium assay) and in assay [3] (fluorescent calcium assay) were 100 to 500 nM, 500 to 2000 nM and 100 to 500 nM, respectively.
`C[C@H]1CN(C(=O)OC(C)(C)C)CCN1c1ncnc2c1c(-c1ccccc1F)cn2-c1cc(C#N)ncn1` [Compound 437, tert-butyl (S)-4-(7-(6-cyanopyrimidin-4-yl)-5-(2-fluorophenyl)-7H-pyrrolo[2,3-d]pyrimidin-4-yl)-3-methylpiperazine-1-carboxylate]: the EC50 in assay [1] (fluorescent calcium assay), in assay [2] (fluorescent calcium assay) and in assay [3] (fluorescent calcium assay) was < 100 nM in each case.
Take `Cc1cn(-c2cccc(F)c2)c2ncnc(N3CCN(C(=O)OC(C)(C)C)C[C@@H]3C)c12` [Compound 683, tert-butyl (S)-4-(7-(3-fluorophenyl)-5-methyl-7H-pyrrolo[2,3-d]pyrimidin-4-yl)-3-methylpiperazine-1-carboxylate]: the EC50 in assay [1] was < 100 nM; in assay [2], 100 to 500 nM; in assay [3], < 100 nM.
As to `C[C@H]1CN(C(=O)OC(C)(C)C)CCN1c1ncnc2c1c(C1CC1(F)F)cn2-c1cccc(C#N)c1` (stereo partly drawn) [Compound 376], the concentration giving a half-maximal response (EC50) was < 100 nM in assay [1] (fluorescent calcium assay), 100 to 500 nM in assay [2] (fluorescent calcium assay) and < 100 nM in assay [3] (fluorescent calcium assay).
For `C[C@H]1CN(C(=O)OC(C)(C)C)CCN1c1ncnc2c1c(-c1ccccc1F)cn2-c1nccc(C#N)n1` [Compound 438, tert-butyl (S)-4-(7-(4-cyanopyrimidin-2-yl)-5-(2-fluorophenyl)-7H-pyrrolo[2,3-d]pyrimidin-4-yl)-3-methylpiperazine-1-carboxylate], the half-maximal effective concentration (EC50) in assay [1] (fluorescent calcium assay) is < 100 nM; in assay [2] (fluorescent calcium assay) it was 500 to 2000 nM; in assay [3] (fluorescent calcium assay) it was < 100 nM.
Regarding `C[C@@H]1CN(c2ncnc3c2c(N2CCC2)cn3-c2cc(F)cc(F)c2)[C@@H](C)CN1C(=O)OC(C)(C)C` [Compound 497, tert-butyl (2R,5S)-4-(5-(azetidin-1-yl)-7-(3,5-difluorophenyl)-7H-pyrrolo[2,3-d]pyrimidin-4-yl)-2,5-dimethylpiperazine-1-carboxylate], the EC50 in assay [1], in assay [2] and in assay [3] was < 100 nM in each case.
On to `CCCN(CC)c1cn(-c2cc(C#N)ccn2)c2ncnc(N3CCN(C(=O)OC(C)(C)C)C[C@@H]3C)c12` [Compound 423, tert-butyl (S)-4-(7-(4-cyanopyridin-2-yl)-5-(ethyl(propyl)amino)-7H-pyrrolo[2,3-d]pyrimidin-4-yl)-3-methylpiperazine-1-carboxylate], for which the EC50 in assay [1] (fluorescent calcium assay), in assay [2] (fluorescent calcium assay) and in assay [3] (fluorescent calcium assay) was < 100 nM throughout.
Regarding `CC(C)(C)OC(=O)N1CCN(c2ncnc3c2c(-c2ccccc2F)cn3-c2cc(C#N)ccn2)C(C)(C)C1` [Compound 420, tert-butyl 4-(7-(4-cyanopyridin-2-yl)-5-(2-fluorophenyl)-7H-pyrrolo[2,3-d]pyrimidin-4-yl)-3,3-dimethylpiperazine-1-carboxylate], the concentration for a half-maximal effect (EC50) in assay [1] (fluorescent calcium assay), in assay [2] (fluorescent calcium assay) and in assay [3] (fluorescent calcium assay) was < 100 nM throughout.
Take `C[C@H]1CN(C(=O)OC(C)(C)C)CCN1c1ncnc2c1c(N1CCC1)cn2-c1cccc(Cl)c1` [Compound 493, tert-butyl (S)-4-(5-(azetidin-1-yl)-7-(3-chlorophenyl)-7H-pyrrolo[2,3-d]pyrimidin-4-yl)-3-methylpiperazine-1-carboxylate]: the EC50 in assay [1] (fluorescent calcium assay), in assay [2] (fluorescent calcium assay) and in assay [3] (fluorescent calcium assay) was < 100 nM throughout.
Take `C[C@H]1CN(C(=O)OC(C)(C)C)CCN1c1ncnc2c1c(C1CC1)cn2C1CCCN(C#N)C1` (stereo partly drawn) [Compound 410, tert-butyl (3S)-4-(7-(1-cyanopiperidin-3-yl)-5-cyclopropyl-7H-pyrrolo[2,3-d]pyrimidin-4-yl)-3-methylpiperazine-1-carboxylate]: the results for the 50% effective concentration (EC50) in assay [1] (fluorescent calcium assay), in assay [2] (fluorescent calcium assay) and in assay [3] (fluorescent calcium assay) were 500 to 2000 nM, > 2000 nM and 500 to 2000 nM, respectively.
For the molecule `C[C@@H]1CN(c2ncnc3c2c(-c2ccccc2F)cn3-c2cc(C(F)(F)F)ccn2)[C@@H](C)CN1C(=O)OC(C)(C)C` [Compound 649, tert-butyl (2R,5S)-4-(5-(2-fluorophenyl)-7-(4-(trifluoromethyl)pyridin-2-yl)-7H-pyrrolo[2,3-d]pyrimidin-4-yl)-2,5-dimethylpiperazine-1-carboxylate], the concentration for a half-maximal effect (EC50) in assay [1], in assay [2] and in assay [3] was < 100 nM throughout.
Take `C[C@@H]1CN(c2ncnc3c2c(-c2ccccc2F)cn3-c2cnn(C)c2)[C@@H](C)CN1C(=O)OC(C)(C)CF` [Compound 185, 1-fluoro-2-methylpropan-2-yl (2R,5S)-4-(5-(2-fluorophenyl)-7-(1-methyl-1H-pyrazol-4-yl)-7H-pyrrolo[2,3-d]pyrimidin-4-yl)-2,5-dimethylpiperazine-1-carboxylate]: the 50% effective concentration (EC50) was < 100 nM in assay [1] (fluorescent calcium assay), 500 to 2000 nM in assay [2] (fluorescent calcium assay) and < 100 nM in assay [3] (fluorescent calcium assay).
For the molecule `C[C@@H]1CN(c2ncnc3c2c(C2CC2)cn3-c2cccc(Cl)c2)[C@@H](C)CN1C(=O)OC1(C)CC1` [Compound 654, 1-methylcyclopropyl (2R,5S)-4-(7-(3-chlorophenyl)-5-cyclopropyl-7H-pyrrolo[2,3-d]pyrimidin-4-yl)-2,5-dimethylpiperazine-1-carboxylate], the results for the EC50 in assay [1], in assay [2] and in assay [3] were 100 to 500 nM, > 2000 nM and < 100 nM, respectively.
